These results are taken from patent US20210213037A1, “METHODS FOR TREATING FIBROSIS” (CHILDREN'S HOSPITAL MEDICAL CENTER, priority 2018, published 2021).

For one assay, the system named is TGFα mice. The assay can be described thus: TGFα-induced pulmonary fibrosis mouse model, therapeutic intervention in established fibrosis. It counts as in vivo. As to conditions: vs vehicle. The text has this: Mouse model of TGFα-induced pulmonary fibrosis and Barasertib treatment therapy The generation of TGFα-overexpressing mice has been described previously (HARDIE et al. (2004) “Conditional expression of transforming growth factor-alpha in adult mouse lung causes pulmonary fibrosis” Am J Physiol Lung Cell Mol Physiol, Vol. 286, pp. L741-749, which is herein incorporated by reference in its entirety). Clara cell-specific protein-rtTA^+/− (CCSP-rtTA) mice were crossed with heterozygous (TetO)7-cmv TGFα mice to produce bitransgenic CCSP/TGFα mice. To induce TGFα expression, the transgenic mice were fed with doxycycline (Dox)-containing chow (62.5 mg/kg) (MADALA et al. (2014) “Inhibition of the alphavbeta6 integrin leads to limited alteration of TGF-alpha-induced pulmonary fibrosis” Am J Physiol Lung Cell Mol Physiol, Vol. 306, pp. L726-735, which is herein incorporated by reference in its entirety). They were housed under specific pathogen-free conditions and handled in accordance with protocols approved by the Institutional Animal Care and Use Committee of the Cincinnati Children's Hospital Research Foundation. Barasertib (Selleckchem, Houston, Tex.) was prepared in fresh vehicle (5% DMSO and 50% PEG in PBS) every day before treatment. […]

For assay [1], the system named is idiopathic pulmonary fibrosis. As to conditions: cited from earlier work.

For `COC(=O)c1ccc2c(c1)NC(=O)/C2=C(\Nc1ccc(N(C)C(=O)CN2CCN(C)CC2)cc1)c1ccccc1` [nintedanib], the “fibroproliferation (Ki67 immunostaining of lung sections)” value with TGFα mice (Dox two weeks, then barasertib 25 or 50 mg/kg QD or nintedanib 60 mg/kg QD for 5 days, data not shown) was “reduction in fibroproliferation”. Moreover, the “expression of ECM genes (Co11α, FN1; RT-PCR)” value with TGFα mice (barasertib 25 or 50 mg/kg QD or nintedanib 60 mg/kg QD i.p., FIG. 14) was “attenuated”. The effect on mortality result in assay [1] was “neither pirfenidone nor nintedanib had any effect”.

Consider `Cc1ccc(=O)n(-c2ccccc2)c1` [pirfenidone], for which, in assay [1], the effect on mortality result was “neither pirfenidone nor nintedanib had any effect” and the “effect on respiratory symptoms” value is on record as “no effect”.
